# From publication PMC3892053, “Pharmacokinetic/pharmacodynamic modeling for the determination of a cimicoxib dosing regimen in the dog” (BMC Veterinary Research, 2013)
# Test system: kaolin-induced paw inflammation
# Assay: Kaolin paw inflammation model, observed antipyretic, analgesic and anti-inflammatory effects
# Assay type: in vivo, dog
# Conditions: oral 2 mg/kg; for Maximum effect, analgesia (paw withdrawal time to heat stimulus): 100% = control without inflammation, 2 mg/kg; for Maximum effect, body temperature: % improvement (100% = return to control); for Total duration of the effect, body temperature: time effects superior to placebo
# Description: The 12 dogs were regularly trained to get accustomed to experimental and measurements conditions for at least one month before the beginning of the experiment. Furthermore, all the investigators involved received a special training for endpoints measurements. The paw inflammation model used was the kaolin model (1.55 g of Kaolin aseptically injected in the skin under general anesthesia, [15]). The measured endpoints used to evaluate the antipyretic, analgesic and anti-inflammatory effects of the NSAID were the body temperature, the paw circumference, the time to perform a creeping test under a tunnel, the lameness score, the vertical force of the paw on force plates (normalized to the dog’s body weight), the thermal pain threshold and the plantar skin temperature. For body temperature a single measurement was obtained at each time using an electronic thermometer. Paw circumference duplicate measures per time point was done just above the pad using a measuring tape (DMC, Colmar, France). Skin plantar temperature was measured (in degrees Celsius) using an infrared thermometer (Raynger M. Raytek, Fisher Bioblock Scientific - Illkirch – France) at a reference site on the plantar face of the paw, at six different times for each day and measures were performed in triplicate. Data used was the average of the three measurements performed at each time point. Creeping time was measured (in seconds) in a tunnel 6.38 m long, using a stopwatch (digital stopwatch) in triplicate for each time point and creeping speed (m/s) was used as the final measurement for this endpoint. Lameness score was assessed using a numerical rating scale as developed by Giraudel et al.. Vertical normalized force i.e. the maximal vertical force applied on the ground by a hind limb was measured with force plates (SATEL Veto; Patrick Savet, Blagnac, France); for each measurement time, three measures were recorded, the mean values were normalized to the dog’s body weight (Fmax/b.wt., kg/kg) and used in the data analyses. Pain was assessed using a hind paw thermal escape model. The model consisted of exposing the hind limb to a light beam delivered by a Hargreaves apparatus (model 390; IITC Inc., Woodlands Hills, CA). A heat intensity corresponding to 15% of the peak heating value of 150 W was selected. The paw withdrawal time (in seconds) was measured. For each trial, three measures were recorded per measurement time, and the mean of the three measures was used in the data analysis.
# The study was conducted according to a classical 2×2 crossover design. Briefly, in period one, half of the dog (3 males and 3 females), received a single oral dose of cimicoxib (approximately 2 mg/kg, one 20 mg capsules – Vetoquinol Lure france) 26.5 h after the induction of kaolin inflammation on the left paw; the other half dogs received a placebo treatment at the same time. In period 2, treatments were crossed over for each dog and inflammation was induced on the right paw. A wash-out delay of at least 5 weeks was applied between the two periods. The treatment (cimicoxib or placebo) was blinded to the investigators.
# At least three days before the induction of kaolin inflammation, the PD endpoints were measured twice on the same day to generate negative control values. These endpoints were also measured at 23.5 and 25.5 h after the induction of the inflammation (i.e. before the treatment) to generate positive control values. Subsequently, the PD endpoints were measured at 2, 4, 9, 15 hours after administration (measures on all dogs) and at 22 h and 27 h after administration depending on the presence of further cimicoxib activity.
# For PD analysis, a percentage of improvement was calculated for all endpoints (except for the lameness score) following Equation 2:
# (2) %improvement=T^+-M/T^+-T^-*100 […]
# [1] = the two groups of dogs together
smiles,measurement,setting,value
COc1ccc(-c2c(Cl)ncn2-c2ccc(S(N)(=O)=O)cc2)cc1F [cimicoxib],"Duration of the maximal effect, analgesia",EM dogs,7 h (from 2.9 to 9.8 h)
same,"Duration of the maximal effect, body temperature",EM dogs,7 h (from 2.1 to 9.1 h)
same,"Duration of the maximal effect, creeping speed",EM dogs,7 h (from 2.2 to 9.2 h)
same,"Duration of the maximal effect, paw circumference",EM dogs,9 h (from 2.2 to 11.2 h)
same,"Duration of the maximal effect, skin plantar temperature",EM dogs,7 h (from 2.3 to 9.3 h)
same,"Duration of the maximal effect, vertical normalized force",EM dogs,6.9 h (from 2.6 to 9.5 h)
same,"Total duration of the effect, creeping speed",EM dogs,15 h
same,"Total duration of the effect, paw circumference",EM dogs,15 h
same,"Total duration of the effect, skin plantar temperature",EM dogs,13 h
same,"Total duration of the effect, vertical normalized force",EM dogs,16 h
same,"Maximum effect, analgesia (paw withdrawal time to heat stimulus)",EM dogs,232 ± 45%
same,"Maximum effect, creeping speed","EM dogs, % improvement",76 ± 9%
same,"Maximum effect, paw circumference","EM dogs, % improvement",14 ± 2%
same,"Maximum effect, skin plantar temperature","EM dogs, % improvement",38 ± 6%
same,"Maximum effect, vertical normalized force","EM dogs, % improvement",68 ± 7%
same,"Maximum effect, body temperature",EM dogs,84 ± 8%
same,"Total duration of the effect, body temperature",EM dogs,13 h
same,"Duration of the maximal effect, analgesia",PM dogs,8.8 h (from 2.9 to 11.8 h)
same,"Duration of the maximal effect, body temperature",PM dogs,19.6 h (from 2.1 to 21.7)
same,"Duration of the maximal effect, clinical lameness score",PM dogs,10.9 h (from 4.8 to 15.7 h)
same,"Duration of the maximal effect, creeping speed",PM dogs,11.1 h (from 4.2 to 15.3 h)
same,"Duration of the maximal effect, paw circumference",PM dogs,7 h (from 4.2 to 11.2 h)
same,"Duration of the maximal effect, vertical normalized force",PM dogs,11.1 h (from 4.5 to 15.5 h)
same,"Maximum effect, skin plantar temperature",PM dogs,No plateau observed
same,"Total duration of the effect, analgesia",PM dogs,23 h
same,"Total duration of the effect, creeping speed",PM dogs,25 h
same,"Total duration of the effect, paw circumference",PM dogs,20 h
same,"Total duration of the effect, skin plantar temperature",PM dogs,22 h
same,"Total duration of the effect, vertical normalized force",PM dogs,28 h
same,"Maximum effect, analgesia (paw withdrawal time to heat stimulus)",PM dogs,152 ± 53%
same,"Maximum effect, creeping speed","PM dogs, % improvement",77 ± 7%
same,"Maximum effect, paw circumference","PM dogs, % improvement",15 ± 3%
same,"Maximum effect, vertical normalized force","PM dogs, % improvement",67 ± 6%
same,"Maximum effect, body temperature",PM dogs,87 ± 9%
same,"Total duration of the effect, body temperature",PM dogs,25 h
same,"overall maximal effect, body temperature",[1],86%
same,"overall maximal effect, creeping speed",[1],76%
